Earlier results on one compound are cited in patent US11827744B2, “Bottlebrush copolymers and uses thereof” (Massachusetts Institute of Technology, priority 2016, dated 2023).

Molecules are shown by their SMILES.

For data set [1] the following is noted: in vivo.

As to `CCc1c2c(nc3ccc(O)cc13)-c1cc3c(c(=O)n1C2)COC(=O)[C@]3(O)CC` [SN-38], the water solubility entry was “low water solubility”. Further, the circulation life-times result in data set [1] is given as “short circulation life-times”.
